Measurements as given in patent US9351944B1, “Malodor eliminating compositions” (TAKASAGO INTERNATIONAL CORPORATION, priority 2008, dated 2016).
Several values for one entry are separate records, joined by “and”; a condition that tells them apart may be missing. Identical values can stand only once.

Assays:
[1] = Methyl mercaptan suppression by Group A and Group B materials alone and combined (synergistic or additive activity); conditions: in ethanol, room temperature 2 hours; for methyl mercaptan suppression (%) B alone: Group B level 400 ppm
Procedure: The synergistic or additive activity of methyl mercaptan inhibition of malodor eliminating materials was tested. 5-40 μl of 1% (w/v) test OE materials in ethanol was placed into a 2 ml GC vial. Ethanol was added into this vial up to 1000 μl. 2 μl of 0.5%(w/v) of sodium methoxide in deionized water was added into the resulting vial, left to sit at room temperature for 2 hours, and analyzed using Multipurpose sampler-GC-PFPD. As a control, ethanol was added instead of test OE materials. Malodor suppression was calculated as described in Example 1 above.

[2] = Methyl mercaptan chemical suppression by Group A and Group B compounds (GC-PFPD); conditions: test material 200 ppm, malodor material 10 ppm, room temperature 2 hours, ethanol/deionized water
Procedure: 2 μl of 0.5%(w/v) of sodium methoxide in deionized water, 20 μl of 1% (w/v) test malodor eliminating material in ethanol, 80 μl of ethanol, and 900 μl of deionized water were added into a 2 ml GC vial, left to sit at room temperature for 2 hours, and analyzed using Multipurpose sampler-GC-PFPD (Gas Chromatography-Pulsed Flame Photometric Detector) (GC-PFPD)MPS2 (Gerstel)—GC; 6890N (Agilent)—PFPD; model 5380 (OI Analytical). As a control, ethanol was added instead of test malodor eliminating materials. The final concentration of test OE material and malodor material are 200 ppm and 10 ppmm, respectively. Malodor suppression was calculated as follows: Malodor Suppression (%)=(GC area of control sample−GC area of test_sample)/GC area of control sample×100

[3] = Suppression of methyl mercaptan (Example 12, GC-PFPD); conditions: test material 0.2%, malodor material 10 ppm, room temperature 2 hours, triplicate
Procedure: 100 μl of 0.01%(w/v) of test malodor material in ethanol, 2 μl of neat flavor oil and 900 μl of deionized water were added into a 4 ml vial and left to sit at room temperature for 2 hours. As a control, ethanol was added instead of the malodor reducing compound. The final concentration of test material and malodor material are 0.2% and 10 ppmm, respectively. 3 ml of ethanol was added into the resulting vial and the thiol level was analyzed using GC-PFPD as described above. Each material was tested in triplicate. Malodor suppression was calculated as described in the example 1 above.

[4] = Propyl mercaptan chemical suppression by malodor eliminating materials (GC-PFPD); conditions: OE material 0.2%, malodor material 10 ppm, room temperature 2 hours, triplicate
Procedure: (§1) The selected OE materials were tested for propyl, allyl, and furfuryl mercaptan suppression. 100 μl of 0.01%(w/v) of test malodor material in ethanol, 2 μl of neat flavor oil and 900 μl of deionized water were added into a 4 ml vial and left to sit at room temperature for 2 hours. As a control, ethanol was added instead of test flavor materials. The final concentration of test OE material and malodor material are 0.2% and 10 ppm, respectively. 3 ml of ethanol was added into the resulting vial and the thiol level was analyzed using GC-PFPD. Each material was tested in triplicate. Malodor suppression was calculated as described in the example 1 above.

[5] = Allyl mercaptan chemical suppression by malodor eliminating materials (GC-PFPD); conditions: OE material 0.2%, malodor material 10 ppm, room temperature 2 hours, triplicate
Procedure: as §1

[6] = Furfuryl mercaptan chemical suppression by malodor eliminating materials (GC-PFPD); conditions: OE material 0.2%, malodor material 10 ppm, room temperature 2 hours, triplicate
Procedure: as §1

Compound	methyl mercaptan suppression (%) [2] [%]	methyl mercaptan suppression (%) [3] [%]	other results
CC(=O)c1ccccc1 [ACETOPHENONE, acetophenone]	–	–	methyl mercaptan suppression (%) A alone ([1]; Group A level 200 ppm): 4%
CCCCC/C(C=O)=C/c1ccccc1 [AMYL CINN ALD, ALPHA]	5	–	methyl mercaptan suppression (%) A alone ([1]; Group A level 200 ppm): −3% and −1%
CC=Cc1ccc(OC)cc1 [ANETHOL NF, anethol]	–	<20	–
C=C(C)[C@@H]1CC=C(C)C(=O)C1 [CARVONE-L, carvone-l]	14	60	methyl mercaptan suppression (%) A alone ([1]; Group A level 200 ppm): 12%; Malodor reduction (%) propyl mercaptan [4]: <20%; Malodor reduction (%) allyl mercaptan [5]: <20%; Malodor reduction (%) furfuryl mercaptan [6]: 27%
O=C/C=C/c1ccccc1 [CINN ALD, cinnamic aldehyde]	33	26	Malodor reduction (%) propyl mercaptan [4]: 26%; Malodor reduction (%) allyl mercaptan [5]: <20%; Malodor reduction (%) furfuryl mercaptan [6]: 27%
CC(C)=CCCC(C)=CC=O [CITRAL SYN REFINED (FDO), CITRAL]	25	–	methyl mercaptan suppression (%) A alone ([1]; Group A level 200 ppm): 1% and 0%
CC(C)c1ccc(C=O)cc1 [CUMIN ALD, cumin aldehyde]	–	–	methyl mercaptan suppression (%) A alone ([1]; Group A level 200 ppm): −42%
O=C1CCCCCCCCCCCCCCO1 [CYCLOPENTADECANOLIDE, cyclopentadecanolide]	–	<20	–
C/C=C/C(=O)C1=C(C)C=CCC1(C)C [DAMASCENONE, damascenone]	100	81	methyl mercaptan suppression (%) A alone ([1]; Group A level 50 ppm): 28% and 17%; Malodor reduction (%) propyl mercaptan [4]: 49%; Malodor reduction (%) allyl mercaptan [5]: 67%; Malodor reduction (%) furfuryl mercaptan [6]: 67%
CCCCCC1CCCC(=O)O1 (stereo not drawn) [DECALACTONE DELTA]	–	<20	–
CCCCCCC/C=C/C=O [DECENAL, TRANS-2,]	90	–	–
CCCCCCCC1CCCC(=O)O1 (stereo not drawn) [DODECALACTONE DELTA, dodecalactone delta]	–	<20	–
CCCCCCCCC/C=C/C=O [DODECENAL, TRANS-2,]	53	–	–
CCOC(=O)C=Cc1ccccc1 [ETH CINNNAMTE, ethyl cinnamate]	50	–	methyl mercaptan suppression (%) A alone ([1]; Group A level 200 ppm): 12% and 8%
CCOC(=O)C(C)CC (stereo not drawn) [ETHYL 2-METHYLBUTYRATE, ethyl 2-methylbutyrate]	–	<20	–
CCOC(C)=O [ETHYL ACETATE, ethyl acetate]	–	<20	–
CCCC(=O)OCC [ETHYL BUTYRATE, ethyl butyrate]	–	<20	–
C/C=C/C(=O)OCC [ETHYL-TRANS-2 BUTENOATE, ethyl-trans-2-butenoate]	73	–	methyl mercaptan suppression (%) A alone ([1]; Group A level 200 ppm): 64%
CC/C=C/C=C/C=O [HEPTADIENAL, TRANS-2-TRANS-4]	44	–	–
CCCC/C=C/C=O [HEPTENAL-TRANS-2]	82	–	–
CCC/C=C/C=O [HEXENAL, TRANS-2,, trans-2-hexenal]	82	–	methyl mercaptan suppression (%) A alone ([1]; Group A level 200 ppm, TRANS-2): 33%
CCC/C=C/CO [HEXENOL, TRANS-2-, trans-2-hexenol]	29	–	–
CC/C=C\CCOC(=O)CCC [HEXENYL BUTY, CIS-3,]	22	–	–
CC/C=C\CCOC(=O)CC(C)C [HEXENYL ISO VAL, CIS-3,]	24	–	–
CC/C=C\CCOC(=O)CC [HEXENYL PROP, CIS-3,]	32	–	–
CCC/C=C/COC(C)=O [HEXENYL-TRANS-2 ACETATE]	35	–	–
CC(=O)/C=C/C1C(C)=CCCC1(C)C (stereo not drawn) [IONONE-ALPHA, ionone alpha]	14	50	Malodor reduction (%) propyl mercaptan [4]: <20%; Malodor reduction (%) allyl mercaptan [5]: 43%; Malodor reduction (%) furfuryl mercaptan [6]: 46%
CC(C)CCOC(=O)C=Cc1ccccc1 [ISOAMYL CINNAMATE]	10	–	–

Compound	methyl mercaptan suppression (%) [2] [%]	methyl mercaptan suppression (%) [3] [%]	other results
CC=Cc1ccc(O)c(OC)c1 [ISOEUGENOL, isoeugenol]	15	–	–
CC1=CC(=O)CC(C)(C)C1 [ISOPHORONE]	31	–	–
CC(C)OC(=O)C=Cc1ccccc1 [ISOPROPYL CINNAMATE]	21	–	–
CC/C=C\CC1=C(C)CCC1=O [JASMONE, CIS]	32	–	–
CC(C)=CCCC(C)C=O (stereo not drawn) [MELONAL]	–	<20	–
CC1CCC(C(C)C)C(O)C1 (stereo not drawn) [MENTHOL NATURAL, menthol]	–	<20	–
CC(=O)OC1CC(C)CCC1C(C)C (stereo not drawn) [MENTHYL ACETATE]	–	<20	–
CC(C)CC=C(C=O)c1ccccc1 [METH 2-PHEN 2-HEXENAL, 5,]	59	–	–
COC(=O)C=Cc1ccccc1 [METH CINNAMATE, methyl cinnamate]	36	–	–
CC(=O)/C=C/C=C(C)C [METHYL HEPTADIENONE, methyl heptadienone]	–	–	methyl mercaptan suppression (%) A alone ([1]; Group A level 200 ppm): 12% and 6% and 8% and 15%
CCCCCCCC(C)=O [METHYL HEPTYL KETONE]	–	<20	–
COC(=O)c1ccccc1O [METHYL SALICYLATE EXT PURE, METHYL SALICYLATE]	–	<20	–
CCCCCC=CCC(=O)OC [METHYL-3 -NONENOATE, METHYL-3-NONENOATE]	36	–	methyl mercaptan suppression (%) A alone ([1]; Group A level 200 ppm): 7%
CC/C=C\CC/C=C/C=O [NONADIEN-1-AL, TRANS-2, CIS-6,]	74	–	–
CCCC/C=C/C=C/C=O [NONADIENAL-TRANS-2-TRANS-4, trans-2-trans-4-nonadien-1-al]	42	–	–
CCCCCC/C=C/C=O [NONENAL, TRANS-2,]	86	–	–
CC/C=C\CCCCCO [NONENOL, CIS 6]	22	–	–
C=CC(O)CCCCC (stereo not drawn) [OCTEN-1 3-OL]	19	–	–
CCCCC/C=C/C=O [OCTENAL TRANS-2]	82	–	–
C=C(C)C1CC=C(C=O)CC1 (stereo not drawn) [PERILLA ALD]	12	–	methyl mercaptan suppression (%) A alone ([1]; Group A level 200 ppm): 16%
C/C=C(\C)C(=O)OCCc1ccccc1 [PHEN ETH TIGLATE]	–	–	methyl mercaptan suppression (%) A alone ([1]; Group A level 200 ppm): 4%
OCCc1ccccc1 [PHENYL ETHYL ALCOHOL-BETA, phenethyl alcohol beta]	–	<20	–
CCC(=O)OCCc1ccccc1 [PHENYLETHYL PROPIONATE, phenyl ethyl propionate]	–	<20	–
CC(O)CO (stereo not drawn) [PROPYLENE GLYCOL (SOLVENT), propylene glycol]	–	–	methyl mercaptan suppression (%) B alone [1]: −5%
Cc1ccc(C(C)C)c(O)c1 [THYMOL, thymol]	–	–	methyl mercaptan suppression (%) B alone [1]: 0%
ISO JASMONE	31	–	–
damascone beta [DAMASCONE, BETA]	99	74	Malodor reduction (%) propyl mercaptan [4]: 23%; Malodor reduction (%) allyl mercaptan [5]: 85%; Malodor reduction (%) furfuryl mercaptan [6]: 47%
